The source of these data is patent US6995153B2, “Fused bicyclic pyrimidine derivatives” (Kyorin Pharmaceutical. Co., Ltd., priority 2002, dated 2006).

What is called Kb is the affinity of an antagonist, worked out from how it opposes an agonist. As a reminder, the melting point is the temperature, or range, at which the solid turns liquid.

In one data set the target is T1, NK1 receptor (Cavia porcellus, UniProt P30547).
T1 construct: from tissue; host or cells: isolated guinea pig ileum
As to the kind of experiment: Test for NK1 receptor antagonist: substance P concentration-response in isolated guinea pig ileum, Schild analysis. The conditions noted are these: against substance P, 10 min pretreatment, method of Schild. The procedure:
(1) Test for NK1 Receptor Antagonist
The method used was according to the method proposed by S. Dion et al.(Dion et al., Life Sciences 41(1987): 2269), to which minor modifications were made.
Guinea pigs were stunned by a blow on the head and were exsanguinated from the carotid artery and ilea were isolated. The ileum was mounted in an organ bath containing Tyrode's solution which was maintained at 32° C., and gased with 95% O2 and 5% CO2. The ileum was subjected to a resting tension of 1-gram and allowed to equilibrate for 20 minutes before the experiment was started. As a control, a concentration-response curve for substance P in the absence of any of test compounds was used. The NK1 receptor antagonist activity of each test compound was determined by a concentration-response curve obtained by pretreating at least three concentrations of the test compound for 10 minutes and subsequently applying substance P in a cumulative manner. The Kb values were determined according to the method of Schild and the results are shown in Table 1 (Schild Brit. J. Pharmacol. 14(1959): 49).
The composition of the Tyrode's solution was as follows: NaCl=136.9, KCl=2.7, CaCl2.2H2O=2.5, MgCl2.6H2O=1.0, NaH2PO4.2H2O=0.4, NaHCO3=11.9, glucose=11.1(mmol/L)

The test system of another data set is Guinea pigs. As to the kind of experiment: Cystometry test on guinea pigs with cut spinal cord (effective bladder capacity). The data set is classed as in vivo. The conditions noted are these: guinea pig. From the text:
(2) Cystometry Test on Guinea Pigs
The method used was according to the method proposed by J S. Peterson et al. (Peterson J S. et al., J. Pharmacol. Methods 21(1989): 231), to which minor modifications were made.
Guinea pigs were anesthetized with halothane and the tenth thoracic spinal cord was cut in each animal. Subsequently, both ureters were ligated and were cut on the kidney-side. Polyethylene catheters were inserted into the bladder to provide an injection pathway for physiological saline and a pathway for the measurement of intravesical pressure. Each animal was restricted in a Ballman cage and was left for more than 2 hours. Subsequently, room-temperature saline was injected through the bladder catheter into the bladder at a rate of 6 mL/hr to conduct a cystometry test. Once the effective bladder capacity was stabilized, a test compound was intravenously administered into the jugular vein. The effective bladder capacity is defined as the volume of saline injected from one urination to the next. The effect of each test compound was determined as the increase in the average bladder volume, which was determined based on the average bladder volume measured 30 minutes prior to the administration of the test compound and the average bladder volume measured every 30 minutes after the administration of the test compound.

T1 sequence (P30547 whole entry): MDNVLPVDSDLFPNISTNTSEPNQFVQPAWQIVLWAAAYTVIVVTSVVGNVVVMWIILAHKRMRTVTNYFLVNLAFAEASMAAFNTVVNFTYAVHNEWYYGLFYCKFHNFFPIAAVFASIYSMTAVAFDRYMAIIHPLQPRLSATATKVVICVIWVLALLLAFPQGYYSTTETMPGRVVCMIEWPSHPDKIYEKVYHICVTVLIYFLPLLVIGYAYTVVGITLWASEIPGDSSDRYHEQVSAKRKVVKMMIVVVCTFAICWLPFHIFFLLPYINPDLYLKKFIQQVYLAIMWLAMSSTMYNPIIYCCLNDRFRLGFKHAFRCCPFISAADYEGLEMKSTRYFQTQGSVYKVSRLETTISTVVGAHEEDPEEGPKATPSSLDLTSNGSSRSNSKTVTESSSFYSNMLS

Regarding `O=C1c2c(nc(N3CCOCC3)nc2-c2ccccc2F)OCCCN1Cc1cc(C(F)(F)F)cc(C(F)(F)F)c1` [Example 2, 5-[3,5-bis(trifluoromethyl)benzyl]-7-(2-fluorophenyl)-9-(morpholine-4-yl)-6-oxo-2,3,4,5-tetrahydro-6H-pyrimido[4,5-b][1,5]oxazocine], the Kb on NK1 receptor worked out at 0.294 nM.

Regarding `O=C1c2c(nc(N3CCC(N4CCCC4)CC3)nc2-c2ccc(F)cc2)OCCCN1Cc1cc(C(F)(F)F)cc(C(F)(F)F)c1` [Example 13, 5-[3,5-bis(trifluoromethyl)benzyl]-7-(4-fluorophenyl)-6-oxo-9-[4-(pyrrolidine-1-yl)piperidine-1-yl]-2,3,4,5-tetrahydro-6H-pyrimido[4,5-b][1,5]oxazocine], the Kb at NK1 receptor is 0.217 nM.

On to `Cc1ccccc1-c1nc(N2CCN(c3ncccn3)CC2)nc2c1C(=O)N(Cc1cc(C(F)(F)F)cc(C(F)(F)F)c1)CCCO2` [Example 14, 5-[3,5-bis(trifluoromethyl)benzyl]-7-(2-methylphenyl)-6-oxo-9-[4-(pyrimidine-2-yl)piperazine-1-yl]-2,3,4,5-tetrahydro-6H-pyrimido[4,5-b][1,5]oxazocine], for which the Kb at NK1 receptor was found to be 0.798 nM.

With `CC(=O)N1CCN(c2nc3c(c(-c4ccccc4C)n2)C(=O)N(Cc2cc(C(F)(F)F)cc(C(F)(F)F)c2)CCCO3)CC1` [Example 16, 9-(4-acetylpiperazine-1-yl)-5-[3,5-bis(trifluoromethyl)benzyl]-7-(2-methylphenyl)-6-oxo-2,3,4,5-tetrahydro-6H-pyrimido[4,5-b][1,5]oxazocine], the melting point fell in the range of 160.5 to 163.5 °C. Also, the Kb on NK1 receptor was found to be 0.105 nM. For the same compound, the “Increase in bladder capacity (%)” value in the data set on Guinea pigs (0.3 mg/kg i.v.) was found to be 59.4%.

Turning to `Cc1ccccc1-c1nc(-n2ccnc2)nc2c1C(=O)N(Cc1cc(C(F)(F)F)cc(C(F)(F)F)c1)CCCO2` [Example 18, 5-[3,5-bis(trifluoromethyl)benzyl]-9-(imidazole-1-yl)-7-(2-methylphenyl)-6-oxo-2,3,4,5-tetrahydro-6H-pyrimido[4,5-b][1,5]oxazocine], the Kb on NK1 receptor was 0.459 nM.

`Cc1ccccc1-c1nc(N2CCS(=O)(=O)CC2)nc2c1C(=O)N(Cc1cc(C(F)(F)F)cc(C(F)(F)F)c1)CCCO2` [Example 20, 5-[3,5-bis(trifluoromethyl)benzyl]-9-(1,1-dioxothiomorpholine-4-yl)-7-(2-methylphenyl)-6-oxo-2,3,4,5-tetrahydro-6H-pyrimido[4,5-b][1,5]oxazocine]: at NK1 receptor, the antagonist equilibrium constant (Kb) came out at 0.0794 nM. For the same compound, the “Increase in bladder capacity (%)” value in the data set on Guinea pigs (0.3 mg/kg i.v.) amounted to 40.4%.

`Cc1ccccc1-c1nc(N2CCC(N(C)C)C2)nc2c1C(=O)N(Cc1cc(C(F)(F)F)cc(C(F)(F)F)c1)CCCO2` (centres unmarked) [Example 25, 5-[3,5-bis(trifluoromethyl)benzyl]-9-[3-(dimethylamino)pyrrolidine-1-yl]-7-(2-methylphenyl)-6-oxo-2,3,4,5-tetrahydro-6H-pyrimido[4,5-b][1,5]oxazocine]: at NK1 receptor, the Kb worked out at 0.427 nM.

On to `Cc1ccccc1-c1nc(N2CCCN(C)CC2)nc2c1C(=O)N(Cc1cc(C(F)(F)F)cc(C(F)(F)F)c1)CCCO2` [Example 26, 5-[3,5-bis(trifluoromethyl)benzyl]-9-(4-methylhomopiperazine-1-yl)-7-(2-methylphenyl)-6-oxo-2,3,4,5-tetrahydro-6H-pyrimido[4,5-b][1,5]oxazocine], for which the Kb on NK1 receptor amounted to 0.398 nM.

On to `CC(=O)NC1CCN(c2nc3c(c(-c4ccccc4C)n2)C(=O)N(Cc2cc(C(F)(F)F)cc(C(F)(F)F)c2)CCCO3)C1` (centres unmarked) [Example 27, 5-[3,5-bis(trifluoromethyl)benzyl]-9-[3-(acetylamino)pyrrolidine-1-yl]-7-(2-methylphenyl)-6-oxo-2,3,4,5-tetrahydro-6H-pyrimido[4,5-b][1,5]oxazocine], for which the Kb at NK1 receptor is 0.44 nM.

Consider `COc1ccccc1-c1nc(N2CCN(C(C)=O)CC2)nc2c1C(=O)N(Cc1cc(C(F)(F)F)cc(C(F)(F)F)c1)CCCO2` [Example 29, 9-(4-acetylpiperazine-1-yl)-5-[3,5-bis(trifluoromethyl)benzyl]-7-(2-methoxyphenyl)-6-oxo-2,3,4,5-tetrahydro-6H-pyrimido[4,5-b][1,5]oxazocine], for which the Kb at NK1 receptor amounted to 0.1 nM.

Regarding `CC(=O)NC1CCN(c2nc3c(c(-c4ccccc4C)n2)C(=O)N(Cc2cc(C(F)(F)F)cc(C(F)(F)F)c2)CCCO3)CC1` [Example 37, 9-[4-(acetylamino)piperidine-1-yl]-5-[3,5-bis(trifluoromethyl)benzyl]-7-(2-methylphenyl)-6-oxo-2,3,4,5-tetrahydro-6H-pyrimido[4,5-b][1,5]oxazocine], the Kb on NK1 receptor was determined as 0.151 nM.

In the case of `Cc1ccccc1-c1nc(N2CCC(NS(C)(=O)=O)CC2)nc2c1C(=O)N(Cc1cc(C(F)(F)F)cc(C(F)(F)F)c1)CCCO2` [Example 38, 5-[3,5-bis(trifluoromethyl)benzyl]-9-[4-(methylsulfonylamino)piperidine-1-yl]-7-(2-methylphenyl)-6-oxo-2,3,4,5-tetrahydro-6H-pyrimido[4,5-b][1,5]oxazocine], at NK1 receptor, the Kb was determined as 0.214 nM.

Turning to `CC(=O)N1CCCN(c2nc3c(c(-c4ccccc4C)n2)C(=O)N(Cc2cc(C(F)(F)F)cc(C(F)(F)F)c2)CCCO3)CC1` [Example 41, 9-(4-acetylhomopiperazine-1-yl)-5-[3,5-bis(trifluoromethyl)benzyl]-7-(2-methylphenyl)-6-oxo-2,3,4,5-tetrahydro-6H-pyrimido[4,5-b][1,5]oxazocine], the Kb at NK1 receptor was found to be 0.308 nM. Further, the “Increase in bladder capacity (%)” value with Guinea pigs (0.3 mg/kg i.v.) was found to be 36.8%.

For `COc1ccccc1-c1nc(N2CCS(=O)(=O)CC2)nc2c1C(=O)N(Cc1cc(C(F)(F)F)cc(C(F)(F)F)c1)CCCO2` [Example 43, 5-[3,5-bis(trifluoromethyl)benzyl]-9-(1,1-dioxothiomorpholine-4-yl)-7-(2-methoxyphenyl)-6-oxo-2,3,4,5-tetrahydro-6H-pyrimido[4,5-b][1,5]oxazocine], the Kb on NK1 receptor was found to be 0.123 nM.

`Cc1ccccc1-c1nc(N2CCN(C)CC2)nc2c1C(=O)N(Cc1cc(C(F)(F)F)cc(C(F)(F)F)c1)CCCO2` [Example 44, 5-[3,5-bis(trifluoromethyl)benzyl]-7-(2-methylphenyl)-9-(4-methylpiperazine-1-yl)-6-oxo-2,3,4,5-tetrahydro-6H-pyrimido[4,5-b][1,5]oxazocine]: the Kb on NK1 receptor was 0.00631 nM.

With `Cc1ccc(-c2c3n(c(=O)c4ncccc24)CC[C@@H](C)CN(Cc2cc(C(F)(F)F)cc(C(F)(F)F)c2)C3=O)cc1` [TAK-637, reference compound], at NK1 receptor, the Kb was 0.269 nM. Moreover, the “Increase in bladder capacity (%)” value is reported as 12.0% with Guinea pigs (0.3 mg/kg i.v.), 23.8% with Guinea pigs (1 mg/kg i.v.) and 20.5% in the data set with Guinea pigs (3 mg/kg i.v.).
